Measured values as given in US10059655B2, “Lipids and lipid compositions for the delivery of active agents” (priority 2013, dated 2018).

Tests used:
[1] = Measurement of siRNA encapsulation (SYBR Gold fluorescence); format: physicochemical; conditions: FVII siRNA in LNP
Description: The lipid nanoparticles (LNPs) were formed by mixing equal volumes of lipids dissolved in alcohol with siRNA dissolved in a citrate buffer by an impinging jet process. The lipid solution contains a cationic lipid compound of the invention, a helper lipid (cholesterol), an optional neutral lipid (DSPC) and a stealth lipid (S010, S024, S027, or S031) at a concentration of 8-16 mg/mL with a target of 12 mg/mL in an alcohol. The siRNA to total lipid ratio is approximately 0.05 (wt/wt). Where a LNP formulation contains four lipid components, the molar ratios of the lipids ranges from 20 to 70 mole percent for the cationic lipid with a target of 40-60, the mole percent of helper lipid ranges from 20 to 70 with a target of 30 to 50, the mole percent of neutral lipid ranges from 0-30, the mole percent of PEG lipid has a range from 1 to 6 with a target of 2 to 5. The concentration of siRNA solution ranges from 0.7 to 1.0 mg/mL with a target of 0.8 to 0.9 mg/mL in a sodium citrate: sodium chloride buffer pH 4-6, with a target of 4.5-5.5. The LNPs are formed by mixing equal volumes of lipid solution in ethanol with siRNA dissolved in a citrate buffer by an impinging jet process through a mixing device with ID ranging from 0.25 to 2.0 mm at a flow rate from 10 to 640 mL/min. The mixed LNP solution is held at room temperature for 0-24 hrs prior to a dilution step. The solution is then concentrated and diafiltered with suitable buffer by ultrafiltration process using membranes with a MW cutoff from 30 to 500 KD. The final product is sterile filtered and stored at 4° C.
SYBR Gold flourescence reagent is used for the determination of siRNA encapsulation in the DLP's. DLP's with and without triton x-100 are used to determine the free siRNA and total siRNA amounts. DLP's samples with and without triton X-100 were excited at 485 nm and flourescence emission is measured at 530 nm. Encapsulation efficiency is calculated based on the following formula: Encapsulation efficiency: [(free siRNA concentration−total siRNA concentration)/(total siRNA concentration)]×100% Encapsulation Data

[2] = Measurement of mRNA encapsulation in lipid nanoparticles (Quant-iT Ribogreen); format: physicochemical; conditions: Leptin mRNA in LNP
Description: All equipment and disposable supplies are certified free of RNase activity by the manufacturer or rendered RNase free by use of the RNaseZap reagent (LifeTechnologies). mRNA is encapsulated at a cationic lipid amine to mRNA phosphate (N:P) molar ratio of 4:1. Lipids (cationic lipid, DSPC, cholesterol and lipidated PEG or stealth lipid) are dissolved in ethanol. The molar ratios are 40:10:38:2, respectively. The mixture is sonicated briefly, then gently agitated for 5 minutes and then maintained at 37° C. until use. mRNA is exchanged into citrate buffer pH 5.8-6.0 by use of Amicon Ultra-15 centrifugal concentrators, and the final concentration is adjusted to 0.5 mg/ml and held at 37° C. until use. An equal volume of lipids in ethanol, mRNA in citrate buffer, and citrate buffer alone are drawn into disposable syringes.
Tubing leading from syringes containing lipids and mRNA are attached to the T junction, and tubing leading from the syringe containing citrate buffer alone is paired with the tubing exiting the T-junction over a collection vessel containing a stir bar on an active stir plate. Syringes are placed in a syringe pump set to expel contents at a flow rate of 1 ml per minute. The pump is activated, and the collected mRNA in lipid nanoparticles is transferred to SnakeSkin dialysis tubing (10,000 MWCO, Thermo Scientific). Material is dialyzed against RNAse- and pyrogen-free 1× phosphate buffered saline overnight at 4° C.
Percent encapsulation of mRNA in lipid nanoparticles is determined using the Quant-iT Ribogreen RNA Assay kit (Life Technologies). The LNP-mRNA suspension is assayed in buffer (mRNA outside the particle), and buffer plus Triton X-100 detergent (total mRNA). The difference calculated is the mRNA inside the particle. Prepare a 1000 ng/mL stock from the RNA provided in the kit and use this to generate a standard curve (0 ng/ml, 15.63-1000 ng/ml) in TE and TE+0.75% Triton X-100. Prepare LNP-mRNA samples in TE buffer and TE buffer+0.75% Triton X-100 with appropriate dilution so that reading is in the range of standard curve (400-2,000 fold). In a 384-well plate (Costar non-treated #3573) add 0.04 ml of standard (in duplicate) or sample (in triplicate) per well. Dilute Ribogreen reagent 240-fold in TE buffer and add 0.06 ml per well. Mix contents of wells and measure fluorescence (excitation=480 nm, emission=520 nm). Subtract background values (no RNA) from standard and test sample values and determine the concentrations of RNA in the samples using the standard curves. Determine the percent encapsulation of the sample by dividing the difference in concentrations between sample+triton and sample in buffer alone by the sample+triton concentration.

[3] = Polydispersity index (PDI) by dynamic light scattering; format: physicochemical; conditions: RSV-F replicon RNA LNP, DLS; for PDI 1st IM: 1st immunization; for PDI 2nd IM: 2nd immunization
Description: Unless indicated otherwise, all PDIs referred to herein are the PDI of the fully formed nanoparticle, as measured by dynamic light scattering on a Malvern Zetasizer. The nanoparticle sample was diluted in phosphate buffered saline (PBS) so that the count rate was approximately 200-400 kcts. The data is presented in Table 3 as a weighted average of the intensity measure.
(§1) % entrapment (% E), Concentration of RNA (Conc), particle size measured by DLS, and polydispersity reported by DLS of LNPs prepared with different cationic lipids

[4] = Particle size of the lipid nanoparticle (Z-average, dynamic light scattering, Malvern Zetasizer); format: physicochemical; conditions: RSV-F replicon RNA LNP, DLS; for Size 1st IM: 1st immunization; for Size 2nd IM: 2nd immunization
Excerpt: The lipid nanoparticles have a size of about 1 to about 2,500 nm, about 10 to about 1,500 nm, about 20 to about 1,000 nm, in a sub-embodiment about 50 to about 600 nm, in a sub-embodiment about 50 to about 400 nm, in a sub-embodiment about 50 to about 250 nm, and in a sub-embodiment about 50 to about 150 nm. Unless indicated otherwise, all sizes referred to herein are the average sizes (diameters) of the fully formed nanoparticle, as measured by dynamic light scattering on a Malvern Zetasizer. The nanoparticle sample is diluted in phosphate buffered saline (PBS) so that the count rate is approximately 200-400 kcts. The data is presented as a weighted average of the intensity measure.
Unless indicated otherwise, all particle size measurements referred to in Table 3 are the Z-average particle size of the fully formed nanoparticle, as measured by dynamic light scattering on a Malvern Zetasizer. The nanoparticle sample was diluted in phosphate buffered saline (PBS) so that the count rate is approximately 200-400 kcts.
as §1

[5] = Percentage of encapsulated RNA and RNA concentration of replicon liposomes (Quant-iT RiboGreen); format: physicochemical; conditions: for %E (% entrapment) 1st IM / Conc (Concentration of RNA) 1st IM: RSV-F replicon RNA LNP prepared for 1st immunization; for %E (% entrapment) 2nd IM / Conc (Concentration of RNA) 2nd IM: RSV-F replicon RNA LNP prepared for 2nd immunization
Description: RNA was encapsulated in liposomes made essentially by the method of Geall et al. (2012) PNAS vol. 109 (36): 14604-14609, Jeffs et al. (2005) Pharmaceutical Research 22 (3):362-372, and Maurer et al. (2001) Biophysical Journal, 80: 2310-2326 The liposomes were made of 10% DSPC (zwitterionic), 40% cationic lipid, 48% cholesterol and 2% PEG-conjugated DMG (2 kDa PEG). These proportions refer to the % moles in the total liposome.
Briefly, lipids were dissolved in ethanol (2 ml), a RNA replicon was dissolved in buffer (2 ml, 100 mM sodium citrate, pH 6) and these were mixed with 2 ml of buffer followed by 1 hour of equilibration. The mixture was then dialized overnight against 1×PBS. The resulting product contained liposomes, with ˜70-95% encapsulation efficiency. For in vitro and in vivo experiments formulations were diluted to the required RNA concentration with 1×PBS.
The percentage of encapsulated RNA and RNA concentration were determined by Quant-iT RiboGreen RNA reagent kit (Invitrogen), following manufacturer's instructions. The ribosomal RNA standard provided in the kit was used to generate a standard curve. Liposomes were diluted 10× or 100× in 1×TE buffer (from kit) before addition of the dye. Separately, liposomes were diluted 10× or 100× in 1×TE buffer containing 0.5% Triton X before addition of the dye (to disrupt the liposomes and thus to assay total RNA). Thereafter an equal amount of dye was added to each solution and then ˜180 μL of each solution after dye addition was loaded in duplicate into a 96 well tissue culture plate. The fluorescence (Ex 485 nm, Em 528 nm) was read on a microplate reader. All liposome formulations were dosed in vivo based on the encapsulated amount of RNA.
as §1

RSV F protein = assay: RSV immunogenicity: F-specific IgG titers after IM vaccination with liposome-formulated self-replicating RNA; format: in vivo; conditions: IM days 0 and 21, BALB/c mice, two weeks after two immunizations

% encapsulation siRNA FVII [1] | SMILES | % encapsulation mRNA Leptin [2] | PDI 1st IM [3] | PDI 2nd IM [3] | Size 1st IM [4] | Size 2nd IM [4] | %E (% entrapment) 1st IM [5] | Conc (Concentration of RNA) 1st IM [5] | %E (% entrapment) 2nd IM [5] | Conc (Concentration of RNA) 2nd IM [5] | Immunogenicity (2wp2; log10 IgG titers) (RSV F protein; 0.1 ng replicon RNA) | Immunogenicity (2wp2; log10 IgG titers) (RSV F protein; 1 ng replicon RNA)
86.7% | CCCCC/C=C\C/C=C\CCCCCCCC(=O)OCC(COC(=O)CCCCCCC/C=C\C/C=C\CCCCC)COC(=O)C1CCN(CC2CC2)CC1 [Example 9, (9Z,9′Z,12Z,12′Z)-2-(((1-(cyclopropylmethyl)piperidine-4-carbonyl)oxy)methyl)propane-1,3-diyl bis(octadeca-9,12-dienoate)] | – | – | – | – | – | – | – | – | – | – | –
86.1% | CCCCC/C=C\C/C=C\CCCCCCCC(=O)OCC(COC(=O)CC(CCCCCCCC)CCCCCCCC)COC(=O)OCCCN(CC)CC (stereo not drawn) [Example 22, (9Z,12Z)-3-(((3-(diethylamino)propoxy)carbonyl)oxy)-2-(((3-octylundecanoyl)oxy)methyl)propyl octadeca-9,12-dienoate] | – | – | – | – | – | – | – | – | – | – | –
89.1% | CCCCC/C=C\C/C=C\CCCCCCCC(=O)OCC(COC(=O)CCCCCCCC(CCCCC)CCCCC)COC(=O)OCCCN(CC)CC (stereo not drawn) [Example 24, (9Z,12Z)-3-(((3-(diethylamino)propoxy)carbonyl)oxy)-2-(((9-pentyltetradecanoyl)oxy)methyl)propyl octadeca-9,12-dienoate] | 86.6% | – | – | – | – | – | – | – | – | – | –
– | CCCCC/C=C\C/C=C\CCCCCCCC(=O)OCC(COC(=O)CCC(OCCCCCCCC)OCCCCCCCC)COC(=O)C1CCN(CC2CC2)CC1 (stereo not drawn) [Example 34, 3-((4,4-bis(octyloxy)butanoyl)oxy)-2-(((9Z,12Z)-octadeca-9,12-dienoyloxy)methyl)propyl 1-(cyclopropylmethyl)piperidine-4-carboxylate] | 97.1% | 0.116 | 0.11 | 136.2 nm | 135.4 nm | 75.5% | 9240 ng/mL | 79.19% | 11495 ng/mL | 3.73 log10 IgG titers | 4.36 log10 IgG titers
– | CCCCC/C=C\C/C=C\CCCCCCCC(=O)OCC(COC(=O)CCC(OCCCCCCCC)OCCCCCCCC)COC(=O)C1CCN(C)C1 (stereo not drawn) [Example 35, 3-((4,4-bis(octyloxy)butanoyl)oxy)-2-(((9Z,12Z)-octadeca-9,12-dienoyloxy)methyl)propyl 1-methylpyrrolidine-3-carboxylate] | 97.3% | 0.119 | 0.108 | 135.2 nm | 137.5 nm | 93.46% | 10059 ng/mL | 93.9% | 9937 ng/mL | 4.53 log10 IgG titers | 4.86 log10 IgG titers
– | CCCCC/C=C\C/C=C\CCCCCCCC(=O)OCC(COC(=O)CCC(OCCCCCCCC)OCCCCCCCC)COC(=O)C1(C)CCN(C)CC1 (stereo not drawn) [Example 40, 3-((4,4-bis(octyloxy)butanoyl)oxy)-2-(((9Z,12Z)-octadeca-9,12-dienoyloxy)methyl)propyl 1,4-dimethylpiperidine-4-carboxylate] | 97.2% | 0.122 | 0.118 | 141 nm | 137.3 nm | 71.1% | 9461 ng/mL | 78.05% | 9650 ng/mL | 4.31 log10 IgG titers | 4.74 log10 IgG titers
– | CCCCC/C=C\C/C=C\CCCCCCCC(=O)OCC(COC(=O)CCC(OCCCCCCCC)OCCCCCCCC)COC(=O)OC1CCN(C)CC1 (stereo not drawn) [Example 48, (9Z,12Z)-3-((4,4-bis(octyloxy)butanoyl)oxy)-2-(((((1-methylpiperidin-4-yl)oxy)carbonyl)oxy)methyl)propyl octadeca-9,12-dienoate] | 92.8% | 0.091 | 0.075 | 137.9 nm | 134.2 nm | 86.169% | 9841 ng/mL | 85.6% | 9665 ng/mL | 4.58 log10 IgG titers | 5.02 log10 IgG titers
